This is an account of results in patent US8466284B2, “Some 2-pyrazinone derivatives and their use as inhibitors of neutrophile elastase” (Astra Zeneca AB, priority 2007, dated 2013).

As a reminder, the IC50 is the concentration that gives 50% inhibition.

Data set [1] can be described thus: Humidity interaction (Gravimetrical Vapour Sorption). Type of data set: physicochemical. The settings on record: 0 to 80% relative humidity (RH) at 25° C. The method, then:
is The gravimetric responses of test samples to changes in humidity were investigated using a TGA 5000 (TA Instruments) Gravimetrical Vapour Sorption (GVS). The relative humidity (RH) was raised in steps of 5% to 90% RH and lowered back to 0% RH in two cycles. Each level of RH was held until the equilibrium condition (sample weight change<0.01 wt % per 10 minutes) was reached. Measurements were normally made at 25° C. Approximately 5 mg of the test sample was placed in the cup and evaluated. The hygroscopicity was calculated as the relative change in weight of the sample between the two conditions 0% RH and 80% RH during the second cycle.

A short description of data set [2]: Thermal behaviour of the solid (DSC / TGA). The format is physicochemical. The following applies: solid state. The method, then:
Using standard methods, for example those described in Höhne, G. W. H. et al (1996), Differential Scanning Calorimetry, Springer, Berlin, the calorimetric response of a test sample to increasing temperature was investigated using a TA Instruments Q2000 Modulated Temperature Differential Scanning Calorimeter (MTDSC). Measurements were performed between 15 and 300° C. using a modulation of ±0.50° C. in intervals of 40 seconds and a ramp rate of 5° C. per minute. Approximately 1 to 5 mg of test sample was placed in aluminium cups with lids (no crimping) under a nitrogen atmosphere.
Gravimetric Analysis (TGA)
The gravimetric response of test samples to increasing temperatures was investigated using a Q500 Thermal Gravimetric Analyser (TGA) (TA Instruments). The samples were heated in a flow of nitrogen gas with a heating rate of 10° C./min.
Approximately 1 to 3 mg of the test sample was placed in the cup and heated to approximately 300° C.

Data set [3] concerns the target T1, Human Neutrophil Elastase (HNE) (Homo sapiens, UniProt P08246).
T1 construct: Human Neutrophil Elastase (HNE) purified from serum; purchased Calbiochem 324681; host or cells: purified from serum (natural human source, not recombinant)
T1 sequence (P08246 30-247 limits assumed): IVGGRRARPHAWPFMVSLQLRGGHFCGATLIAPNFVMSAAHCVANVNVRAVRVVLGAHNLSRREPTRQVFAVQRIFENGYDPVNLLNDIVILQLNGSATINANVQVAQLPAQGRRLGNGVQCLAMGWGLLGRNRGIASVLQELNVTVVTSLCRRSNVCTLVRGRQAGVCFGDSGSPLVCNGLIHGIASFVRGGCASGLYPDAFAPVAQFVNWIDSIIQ
Kind of data set: Human Neutrophil Elastase Quenched-FRET Assay. Type of data set: biochemical. The settings on record: 1.7 nM HNE, 100 μM MeOSuc-AAPV-AMC, 15 min pre-incubation, 30 min at room temperature; read-out: Inhibition of Human Neutrophil Elastase IC50. The method, then:
Human Neutrophil Elastase Quenched-FRET Assay
The assay uses Human Neutrophil Elastase (HNE) purified from serum (Calbiochem art. 324681; Ref. Baugh, R. J. et al., 1976, Biochemistry. 15, 836-841). HNE was stored in 50 mM sodium acetate (NaOAc), 200 mM sodium chloride (NaCl), pH 5.5 with added 30% glycerol at −20° C. The protease substrate used was Elastase Substrate V Fluorogenic, MeOSuc-AAPV-AMC (Calbiochem art. 324740; Ref. Castillo, M. J. et al., 1979, Anal. Biochem. 99, 53-64). The substrate was stored in dimethyl sulphoxide (DMSO) at −20° C. The assay additions were as follows: Test compounds and controls were added to black 96-well flat-bottom plates (Greiner 655076), 1 μL in 100% DMSO, followed by 30 μL HNE in assay buffer with 0.01% Triton (trade mark) X-100 detergent. The assay buffer constitution was: 100 mM Tris(hydroxymethyl)aminomethane (TRIS) (pH 7.5) and 500 mM NaCl. The enzyme and the compounds were incubated at room temperature for 15 minutes. Then 30 μl substrate in assay buffer was added. The assay was incubated for 30 minutes at room temperature. The concentrations of HNE enzyme and substrate during the incubation were 1.7 nM and 100 μM, respectively. The assay was then stopped by adding […] stop solution (140 mM acetic acid, 200 mM sodium monochloroacetate, 60 mM sodium acetate, pH 4.3). Fluorescence was measured on a Wallac 1420 Victor 2 instrument at settings: Excitation 380 nm, Emission 460 nm. IC50 values were determined using Xlfit curve fitting using model 205.

The structures appear in SMILES notation. Some results are limits rather than exact numbers.

Regarding `Cc1c(-c2ccnn2-c2ccc(C#N)cc2)nc(C(N)=O)c(=O)n1-c1cccc(C(F)(F)F)c1` [Example 1a, 6-[1-(4-Cyanophenyl)-1H-pyrazol-5-yl]-5-methyl-3-oxo-4-[3-(trifluoromethyl)phenyl]-3,4-dihydropyrazine-2-carboxamide Form A], in data set [1], the “water uptake (hygroscopicity)” value is recorded as less than 0.2 wt %. In addition, in data set [2], the “thermally stable below (no solvent loss nor other thermal event prior to melting)” value was “below 260 °C”.
Take `Cc1c(C2=NC(C)(C)CN2c2ccc(C#N)cc2)nc(C(N)=O)c(=O)n1-c1cccc(C(F)(F)F)c1` [Example 6, 6-(1-(4-Cyanophenyl)-4,4-dimethyl-4,5-dihydro-1H-imidazol-2-yl)-5-methyl-3-oxo-4-(3-(trifluoromethyl)phenyl)-3,4-dihydropyrazine-2-carb oxamide]: the IC50 in data set [3] was 1.4 nM.
Take `Cc1c(-c2ccnn2-c2ccc(Cl)cn2)nc(C(N)=O)c(=O)n1-c1cccc(C(F)(F)F)c1` [Example 3, 6-[1-(5-Chloropyridin-2-yl)-1H-pyrazol-5-yl]-5-methyl-3-oxo-4-[3-(trifluoromethyl)phenyl]-3,4-dihydropyrazine-2-carboxamide]: the IC50 in data set [3] was determined as 28 nM.
Consider `Cc1c(-c2ccnn2-c2ccc(Cl)cc2)nc(C(N)=O)c(=O)n1-c1cccc(C(F)(F)F)c1` [Example 2, 6-[1-(4-Chlorophenyl)-1H-pyrazol-5-yl]-5-methyl-3-oxo-4-[3-(trifluoromethyl)phenyl]-3,4-dihydropyrazine-2-carboxamide], for which the IC50 in data set [3] worked out at 11 nM.
The same measure, in the same setting: the value for `Cc1c(-c2ccnn2-c2ccc(C#N)cc2)nc(C(=O)NC2CC2)c(=O)n1-c1cccc(C#N)c1` [Example 5, 4-(3-Cyanophenyl)-6-[1-(4-cyanophenyl)-1H-pyrazol-5-yl]-N-cyclopropyl-5-methyl-3-oxo-3,4-dihydropyrazine-2-carboxamide] was 4.2 nM; that for `Cc1c(-c2ccnn2-c2ccc(C#N)cc2)nc(C(N)=O)c(=O)n1-c1cccc(C(F)(F)F)c1` [Example 1 or 1a, 6-[1-(4-Cyanophenyl)-1H-pyrazol-5-yl]-5-methyl-3-oxo-4-[3-(trifluoromethyl)phenyl]-3,4-dihydropyrazine-2-carboxamide] was 2.2 nM; that for `Cc1cc(-c2nc(C(N)=O)c(=O)n(-c3cccc(C(F)(F)F)c3)c2C)n(-c2ccc(C#N)cc2)n1` [Example 4, 6-[1-(4-Cyanophenyl)-3-methyl-1H-pyrazol-5-yl]-5-methyl-3-oxo-4-[3-(trifluoromethyl)phenyl]-3,4-dihydropyrazine-2-carboxamide] was 3.5 nM.
